Data from patent EP0678516B1, “Preparation of 2-bromo-5-(2-bromo-2-nitrovinyl)-furan and its use as microcide” (CENTRO DE BIOACTIVOS QUIMICOS DE LA UNIVERSIDAD CENTRAL DE …, priority 1994, dated 1995).
Converted amounts (≈) assume the structure as drawn.

Experiments:
[1] = Ophthalmic irritability studies; type: in vivo
Text: (§1) Moreover, the anatomopathological elements and the clinical events were characterized during the experiments.

Percutaneous LD50 [2] = type: in vivo, Sprague Dawley rats; conditions: interscapular region, 0.2 ml/10 g of body mass
Text: as §1

Pseudomonas aeruginosa [3] = assay: Intramuscular treatment of stud bulls affected with piocianosis; type: in vivo
Protocol: The active principle was administered in a dose of 5-10 mg/kg of body mass by intramuscular route in bulls affected with piocianosis Pseudomonas aeruginosa. […] In clinical tests no allergic reactions were detected in animals (Table No.5).

[4] = tested on: Streptococcus agalactiae and Staphylococcus aureus; assay: Intracisternal treatment of clinical mastitis; type: in vivo, femal oxes
Text: The active principle in a concentration of 0.1 % is applied by intracisternal route daily for three consecutive days in femal oxes clinically affected by mastitis of morbid catarrh purulen course types, in which the isolated micro-organisms were Streptococcus agalactiae and Staphylococcus aureus. As a control medicament the mammary infusion of neomicine was used.

Pseudomonas aeruginosa [5] = assay: Infected burn wound treated with ointments; type: in vivo, guinea-pigs; conditions: concentration of ointment applied on 2 cm^2 infected burns
Protocol: The "in vivo" effectiveness of four ointments of 2-bromo-5-(2-bromo-2-nitro-vinyl)-furan was evaluated at 1, 0.5, 0.25 and 0.125% in hydrophislous ointment applying it on 2 cm^2 of burns provoked to guinea-pigs and subsequently infected with Pseudomonas aeruginosa by a burn wound in an area of 2 cm^2, using positive and negative control groups.

Pseudomonas aeruginosa [6] = assay: Experimental infection, implanted sponge method; type: in vivo, mice
Protocol: The effectiveness of three oil formulations were also tested, at 0.15, 0.2, 0.25% and a control with placebo in mice experimentally infected using implanted sponge method, inoculated with Pseudomonas aeruginosa and Staphylococcus aureus. Recuperation of the animal was between 3 and 4 days of treatment (Tables No. 3 and 3.1).
Read: n = Accumulated from recuperated animals Tr = Recuperation time in days (weighted average) ((n1±1) + ((n2-n1) ±2)+((n3-n2)±3((n4-n3)±4)/n [formula] I,II, III: treated with 2-bromo-5-(2-bromo-2-nitro-vinyl)-furan.

Oral LD50 [7] = type: in vivo, mice OF1; conditions: taken orally, tragacant gum as vehicle
Text: as §1

Oral LD50 [8] = type: in vivo, Sprague Dawley rats; conditions: taken orally, tragacant gum as vehicle
Text: as §1

queratoconjunctivitis = assay: Effectiveness against bacterial eye diseases, all treated eyes; type: in vivo; conditions: 9435 animal eyes, overall
Text: The effectiveness of the active principle against bacterial eye diseases in: 9435 animal eyes affected with queratoconjunctivitis; 8093 of cattle and 1342 of other species (sheep, rabbits, dogs, horses, pigs, cats, guinea-pigs and birds).

[9] = Chronic study, external application for six months; type: in vivo, Sprague Dawley rats; conditions: applied externally for a period of six months
Text: Chronic studies of 2-bromo-5-(2-bromo-nitro-vinyl)-furan were made on Sprague Dawley rats.

Proteus morganii = assay: In vitro MIC (serial dilution); type: cell-based; conditions: Morganella morganii
Protocol: (§2) The antimicrobial sensitivity was first evaluated "in vitro" using the serial dilution method for bacteria and fungi. Other growth methods in agar cultures were included for other species. The liquid and solid mediums used were Mueller-Hinton, Tryptona Soya, Sabouraud Dextrosa, Sabouraud Maltose and other mediums in accordance with the cultural demands of the micro-organisms valued.
(§3) The temperature and incubation period was adjusted to conditions and characteristics of the micro-organisms used.
(§4) The Minimal Inhibitory Concentration (MIC) was calculated in terms of MIC50 and MIC90 in µg/ml.

Salmonella oxford = assay: In vitro MIC (serial dilution); type: cell-based
Protocol: as §2, §3, §4

Candida parasilosis = assay: In vitro MIC (serial dilution); type: cell-based
Protocol: as §2, §3, §4

Proteus mirabilis = assay: In vitro MIC (serial dilution); type: cell-based
Protocol: as §2, §3, §4

Aspergillus sp. = assay: In vitro MIC (serial dilution); type: cell-based
Protocol: as §2, §3, §4

Salmonella typhimurium = assay: In vitro MIC (serial dilution); type: cell-based; conditions: Salmonella enterica
Protocol: as §2, §3, §4

Candida krusei = assay: In vitro MIC (serial dilution); type: cell-based; conditions: Pichia kudriavzevii
Protocol: as §2, §3, §4

Bacillus alvei = assay: In vitro MIC (serial dilution); type: cell-based; conditions: Paenibacillus alvei
Protocol: as §2, §3, §4

Streptococcus agalactiae = assay: In vitro MIC (serial dilution); type: cell-based
Protocol: as §2, §3, §4

Microsporum gypseum = assay: In vitro MIC (serial dilution); type: cell-based; conditions: Nannizzia gypsea
Protocol: as §2, §3, §4

Percutaneous LD50 [10] = type: in vivo, mice OF1; conditions: interscapular region, 0.2 ml/10 g of body mass
Text: as §1

[11] = tested on: septic puerperal metritis; assay: Treatment of septic puerperal metritis; type: in vivo, female oxes; conditions: G-1 1.5% oil solution intrauterine, Tetracycline abdominal aorta route
Protocol: The treatment consisted in applying 40 ml for three consecutive days at intervals of 24 hours from the diagnosis of the disease process. Treatment was compared with intrasoric tetracyclin.

[12] = 5-10 mg/kg of body mass, intramuscular route
[13] = 25 ill bulls, 5 treatments per animal, 5-10 mg/kg intramuscular

With `O=[N+]([O-])C(Br)=Cc1ccc(Br)o1` [Product G-1, 2-bromo-5-(2-bromo-2-nitro-vinyl)-furan] the “concentrations at which no irritating effects were made on the eye structure” value [1] was “lower than 1.25%”, the LD50 (Percutaneous LD50 [2]; female Sprague Dawley rats) was 14.7% and the LD50 (Percutaneous LD50 [2]; male Sprague Dawley rats) was 15.8%. The “allergic reactions to the medicament” value (Pseudomonas aeruginosa [3]; [12]) was “without any allergic reactions to the medicament being detected”, the “seminal parameters established as quality control” value (Pseudomonas aeruginosa [3]; [12]) was “no alterations being detected” and the “Recuperated (animals)” value (Pseudomonas aeruginosa [3]; [13]) was 21. For the same compound, the percentage of effectiveness (Pseudomonas aeruginosa [3]; [13]) was 84%, the “bacteriological tests carried out in the semen” value (Pseudomonas aeruginosa [3]; at 3,7,14,21 and 28 days) was “negative at germ” and the “cytotoxicity and morphological characteristic of spermatozoid” value (Pseudomonas aeruginosa [3]; frozen semen of treated bulls) was “absence of cytotoxicity and variations in morphological characteristic of spermatozoid”. The “Recuperated n (affected parts)” value ([4]; G-I 0.1% intracisternal daily for three days (57 parts), neomicine mammary infusion (12 parts)) was 56, the “Recuperated % (clinical recuperation of the affected parts)” value ([4]; G-I 0.1% intracisternal daily for three days, neomicine mammary infusion) was 98.25% and the “effective dose 50 (ED50)” value (Pseudomonas aeruginosa [5]) was 0.125%. For the same compound, the Accumulated clinical recuperation (Pseudomonas aeruginosa [6]; Formula 0.15%, day 3, 10 mice) was 80.0a %, the “Accumulated clinical recuperation, n (recuperated animals)” value (from here on “Accumulated clinical recuperation, n”) (Pseudomonas aeruginosa [6]; Formula 0.15%, day 3, 10 mice) was 8 and the Accumulated clinical recuperation (Pseudomonas aeruginosa [6]; Formula 0.15%, day 5, 10 mice) was 100.0a %. For the same compound, the “Accumulated clinical recuperation, n” value (Pseudomonas aeruginosa [6]; Formula 0.15%, day 5, 10 mice) was 10, the Accumulated clinical recuperation (Pseudomonas aeruginosa [6]; Formula 0.15%, day 7, 10 mice) was 100.0% and the “Accumulated clinical recuperation, n” value (Pseudomonas aeruginosa [6]; Formula 0.15%, day 7, 10 mice) was 10. The Accumulated clinical recuperation (Pseudomonas aeruginosa [6]; Formula 0.2%, day 3, 10 mice) was 80.0a %, the “Accumulated clinical recuperation, n” value (Pseudomonas aeruginosa [6]; Formula 0.2%, day 3, 10 mice) was 8 and the Accumulated clinical recuperation (Pseudomonas aeruginosa [6]; Formula 0.2%, day 5, 10 mice) was 100.0a %. For the same compound, the “Accumulated clinical recuperation, n” value (Pseudomonas aeruginosa [6]; Formula 0.2%, day 5, 10 mice) was 10, the Accumulated clinical recuperation (Pseudomonas aeruginosa [6]; Formula 0.2%, day 7, 10 mice) was 100.0% and the “Accumulated clinical recuperation, n” value (Pseudomonas aeruginosa [6]; Formula 0.2%, day 7, 10 mice) was 10. For the same compound, the Accumulated clinical recuperation (Pseudomonas aeruginosa [6]; Formula 0.25%, day 3, 10 mice) was 50.0a %, the “Accumulated clinical recuperation, n” value (Pseudomonas aeruginosa [6]; Formula 0.25%, day 3, 10 mice) was 5 and the Accumulated clinical recuperation (Pseudomonas aeruginosa [6]; Formula 0.25%, day 5, 10 mice) was 90.0a %. For the same compound, the “Accumulated clinical recuperation, n” value (Pseudomonas aeruginosa [6]; Formula 0.25%, day 5, 10 mice) was 9, the Accumulated clinical recuperation (Pseudomonas aeruginosa [6]; Formula 0.25%, day 7, 10 mice) was 100.0% and the “Accumulated clinical recuperation, n” value (Pseudomonas aeruginosa [6]; Formula 0.25%, day 7, 10 mice) was 10. The “Lethal Average Dose (LD50)” value (Oral LD50 [7]; mice OF1 females) was 1731.4 mg/kg of body mass, the “Lethal Average Dose (LD50)” value (Oral LD50 [7]; mice OF1 male) was 1835.8 mg/kg of body mass and the “Lethal Average Dose (LD50)” value (Oral LD50 [8]; female Sprague Dawley rats) was 1515.5 mg/kg of body mass. For the same compound, the “Lethal Average Dose (LD50)” value (Oral LD50 [8]; male Sprague Dawley rats) was 1857 mg/kg of body mass, the clinical recuperation (queratoconjunctivitis) was 89,6% and the “haematological, haemochemical and histopathological studies” value [9] was “did not lead to any major problems in the different organs and tissues analysed”. The MIC50 (Proteus morganii) was 3.13 µg/mL (≈ 10.5 µM), the MIC90 (Proteus morganii) was 10.2 µg/mL (≈ 34.2 µM) and the MIC50 (Salmonella oxford) was 4.42 µg/mL (≈ 14.9 µM). For the same compound, the MIC90 (Salmonella oxford) was 5.83 µg/mL (≈ 19.6 µM), the MIC50 (Candida parasilosis) was 3.56 µg/mL (≈ 12 µM) and the MIC90 (Candida parasilosis) was 6.93 µg/mL (≈ 23.3 µM). It also gave an MIC50 (Proteus mirabilis) of 9.36 µg/mL (≈ 31.5 µM), an MIC90 (Proteus mirabilis) of 24.1 µg/mL (≈ 81.3 µM) and an MIC50 (Aspergillus sp.) of 16.2 µg/mL (≈ 54.6 µM). The MIC90 (Aspergillus sp.) was 48.3 µg/mL (≈ 163 µM), the MIC90 (Salmonella typhimurium; TYPHIMURIUM, read-out: MIC90 values) was 17.7 µg/mL (≈ 59.5 µM) and the MIC50 (Salmonella typhimurium; Salmonella typhimurium) was 7.43 µg/mL (≈ 25 µM). For the same compound, the MIC50 (Candida krusei) was 1.92 µg/mL (≈ 6.47 µM), the MIC90 (Candida krusei) was 2.84 µg/mL (≈ 9.57 µM) and the MIC50 (Bacillus alvei) was 2.21 µg/mL (≈ 7.44 µM). It also gave an MIC90 (Bacillus alvei) of 5.08 µg/mL (≈ 17.1 µM), an MIC50 (Streptococcus agalactiae) of 1.99 µg/mL (≈ 6.7 µM) and an MIC90 (Streptococcus agalactiae) of 4.55 µg/mL (≈ 15.3 µM). It also gave an MIC50 (Microsporum gypseum) of 12.5 µg/mL (≈ 42.1 µM), an MIC90 (Microsporum gypseum) of 20.8 µg/mL (≈ 70 µM) and an LD50 (Percutaneous LD50 [10]; mice OF1 females) of 9.8%. The LD50 (Percutaneous LD50 [10]; mice OF1 males) was 12.1%, the Recuperated n ([11]; 27 females, 19 females) was 20 and the “IIA (Artificial insemination index)” value [11] was 1.091±0.30a. The Recuperated % [11] was 74.1%, the “T-R (Average of treatment interval of clinical recuperation)” value [11] was 17.7 days and the “IIA (Artificial insemination index)” value ([11]; listed as new formula) was 1.09 ± 0.30.
